The results in this text go back to US7612208B2, “Crystalline form of the salt of 4-(3-chloro-4-(cyclopropylaminocarbonyl)aminophenoxy)-7-methoxy-6-quinolinecarboxamide or the solvate of the salt and a process for preparing the same” (Eisai R&D Management Co., Ltd., priority 2003, dated 2009).

The nature of data set [1]: Test for measuring dissolution rate (rotating disk method). It is filed as physicochemical. The note with it: 2nd fluid pH 6.8, 37° C., 50 rpm. On the procedure:
The dissolution rates of the following crystals were measured under the conditions described below by the rotating disk method (see, J. H. Woods et al., J. Pharm. Soc., 54, 1068 (1955)): a crystalline form of the free carboxamide (obtained in Preparation Example 1), a crystalline form of the hydrochloride of the carboxamide (obtained in Example 1), a crystalline form of the hydrobromide of the carboxamide (obtained in Example 2), a crystalline form of the methanesulfonate (hereunder, referred to as “mesylate”) of the carboxamide (Form A) (obtained in Example 5), a crystalline form of the mesylate of the carboxamide (Form C) (obtained in Example 7) and a crystalline form of the ethanesulfonate (hereunder, referred to as “esylate”) (Form β) (obtained in Example 12). The dissolution rates were calculated based on a range in which linearity was maintained in the relation between concentration and time at the initial stage of dissolution.
(Rotating Disk Method Conditions)
• Solvent: “2nd fluid” (pH 6.8, 500 mL) as described in Japanese Pharmacopoeia 14th Edition, General Tests (disintegration test) • Temperature: 37° C. • Disk rotation speed: 50 rpm • Area of powder contacting with solvent on disk: 1 cm^2 • Sampling amount: approx. 1 mL (HPLC Conditions) • Column: Cadenza CD-18 (Imtakt Corporation; inner diameter 4.6 mm, Column length 100 mm, particle size 3 μm) • Column temperature: 40° C. • Flow rate: 1.0 mL/min • Mobile phase:
Concentration of solution B: 20% • Injection amount: 100 μL • Detection: ultraviolet absorbance photometer (wavelength: 252 nm) • Temperature of auto sampler: 25° C. [Results]

Data set [2] can be described thus: Evaluation of hygroscopicity (storage 1 week; water content, powder X-ray diffraction). The following applies: for change in appearance and crystal transition / change of water content / hygroscopicity: 25° C., relative humidity 75% or 93%; for crystal form: powder X-ray diffraction. It is filed as physicochemical. On the procedure:
The hygroscopicity and solid stability of a crystalline form of the mesylate of the carboxamide (Form A) (obtained in Example 5), a crystalline form of the mesylate of the carboxamide (Form C) (obtained in Example 7), a crystalline form of the acetic acid solvate of the mesylate of the carboxamide (Form I) (obtained in Example 10) and a crystalline form of the esylate of the carboxamide (Form β) (obtained in Example 12) were measured under the following conditions.
1. Storage Conditions for the Hygroscopicity Test (Period: 1 Week)
a-1. 25° C., relative humidity 75%
b-1. 25° C., relative humidity 93%
Analysis was carried out according to “X-Ray Powder Diffraction Method” described in Japanese Pharmacopoeia 14th Edition, General Tests (B-614 to 619) under the following measurement conditions. • Apparatus: RINT-2000 (manufacture by Rigaku Denki K. K.) • X-ray: CuKα ray • Monochrometer: curved crystal monochrometer • Goniometer: vertical goniometer • Counter: scintillation counter • Applied voltage: 40 kV • Charging current: 200 mA • Scan speed: 5°/min • Scan axis: 2θ/θ • Scan range; 2θ+5° to 40° • Divergent slit: 0.5° • Scattering slit: 0.5° • Receiving slit: 0.3 mm 5. Measurement of Water Content
Measurement was carried out according to the Water Determination as described in Japanese Pharmacopoeia 14th Edition, General Tests (B-318 to 331) using 6 to 10 mg of each crystal.

Data set [3] is described as follows: Evaluation of solid stability (storage 2 weeks; total impurity by HPLC, water content, powder X-ray diffraction). The following applies: for changes in water content and appearance, crystal transition: all storage conditions. In kind it is physicochemical. On the procedure:
2. Storage Conditions for the Solid Stability Test (Period: 2 Weeks) a-2. −20° C. (well closed) b-2. 25° C., light irradiation (1000 1×; shading with aluminum foil, well closed) c-2. 25° C., light irradiation (1000 1×; well closed) […]
e-2. 60° C. (well closed except the following case: slightly open in the case of a crystalline form of the acetic acid solvate of the mesylate (Form I))
3. Method for Measuring the Impurity Amount by HPLC
After storage, the sample solution was prepared by adding a mixed solvent of water and methanol (3:1) to each crystal at 0.1 mg/mL as final concentration.
Tests were conducted by the HPLC method for these sample solutions under the measurement conditions described below, and the eluted peak areas were measured to determine the total impurity amount by the relative area method (impurities of 0.05% or more were counted).
(Formula for Calculating Total Impurity Amount)
• Individual impurity amount (%)=(the peak area for the individual impurity)×100/{(the peak area for carboxamide)+(sum of the peak areas for impurities)} • Total impurity amount (%)=sum of individual impurity amounts (HPLC Measurement Conditions) • Column: Mightysil RP-18 GP (Kanto Kagaku; inner diameter 4.6 mm, column length 150 mm, particle size 3 μm) • Column temperature: constant temperature in vicinity of 40° C. • Flow rate: 1.0 mL/min • Mobile phase:
Solution B: CH3CN:H2O:HClO4=900:100:1 (v/v/v) • Gradient conditions […]
• Injection amount: 10 μL • Detection: ultraviolet absorbance photometer (wavelength: 252 nm) • Temperature of auto sampler: constant temperature in vicinity of 10° C. 4. Powder X-ray Diffraction […]
Measurement of Water Content

Data set [4] can be described thus: Powder X-ray diffraction with a treatment of humidification. It is filed as physicochemical. The note with it: room temperature. On the procedure: Powder X-ray diffraction was measured under the measurement conditions similar to those in 4. (powder X-ray diffraction) of Test Example 3. Humidification was carried out using a humidity control unit HUM-1A (manufactured by Rigaku Denki K. K.)), to sequentially adjust relative humidity to 3%, 30%, 50%, 60%, 70%, 75%, 80% and 85% at room temperature.

Data set [5] in a line: Study of pharmacokinetics in beagle dogs. It is filed as in vivo. The following applies: mean ± standard error; for BA: beagle dogs n=3, oral 3 mg/kg as free form vs single intravenous administration of free form; for AUC0-24hr / Maximum plasma concentration (Cmax) / plasma concentration after 24 hours (C24hr) / time to reach maximum plasma concentration (Tmax): beagle dogs n=3, oral, gelatin capsule, 3 mg/kg as free form, fasted. On the procedure: A crystalline form of the free from of the carboxamide (obtained in Preparation Example 1), a crystalline form of the hydrobromide of the carboxamide (obtained in Example 2) and a crystalline form of the mesylate of the carboxamide (Form A) (obtained in Example 5) were grounded in a mortar, encapsulated in a gelatin capsule, and then administered orally to beagle dogs (n=3). After administration, 10 mL of water was further administered orally. The dose was set such that it was equivalent to 3 mg/kg as a free form, and the beagle dogs were fasted from the day before administration, and fed again 8 hours after the administration.
To calculate bioavailability (BA), a test was conducted using a single intravenous administration. More specifically, a crystalline form of the free from of the carboxamide was dissolved in a solution containing 10% dimethyl sulfoxide, 50% polyethylene glycol 400 and 40% 0.1 M aqueous solution of hydrochloric acid and administered intravenously through cephalic vein of the foreleg.
The plasma concentration of the carboxamide was measured by HPLC-UV method after sampling blood from cephalic vein of the foreleg. Based on the concentration, pharmacokinetic parameters were calculated for each individual by the moment method. Further, based on the calculated parameters, the mean value and standard error thereof were calculated.

The mark [6] stands for this setting: a-1: 25° C., relative humidity 75%, 1 week.
Setting [7] is: b-1: 25° C., relative humidity 93%, 1 week.
The mark [8] stands for this setting: a-2: −20° C. (well closed), 2 weeks.
Setting [9] is: b-2: 25° C., light irradiation 1000 lx, shading with aluminum foil, well closed, 2 weeks.
The mark [10] stands for this setting: c-2: 25° C., light irradiation 1000 lx, well closed, 2 weeks.
The mark [11] stands for this setting: d-2: 40° C., relative humidity 75%, 2 weeks.
The mark [12] stands for this setting: e-2: 60° C., 2 weeks (well closed; slightly open for Form I).
[13] abbreviates: solid stability test, initial, HPLC relative area.

For the compound `CCS(=O)(=O)O.COc1cc2nccc(Oc3ccc(NC(=O)NC4CC4)c(Cl)c3)c2cc1C(N)=O` [esylate (Form β), Ethanesulfonate of 4-(3-chloro-4-(cyclopropylaminocarbonyl)aminophenoxy)-7-methoxy-6-quinolinecarboxamide], the dissolution rate in data set [1] is recorded as 18.5 μg/min/cm^2. In data set [2] (1 week), the “change in appearance and crystal transition” value was “Neither remarkable change in appearance nor crystal transition was observed”. In data set [2] (1 week), the “change of water content” value is reported as “did not change remarkably”. Further, the hygroscopicity result in data set [2] (1 week) is reported as “not observed”. The water content in data set [2] (setting [6]) worked out at 1.7%; in data set [2] (setting [7]), 1.4%; in data set [2] (hygroscopicity test, initial), 1.7%; in data set [3] (setting [8]) it was 2.0%; in data set [3] (setting [9]), 2.5%; in data set [3] (setting [10]), 2.1%. Moreover, the water content stood at 2.0% in data set [3] (setting [11]); 2.2% in data set [3] (setting [12]); 1.7% in data set [3] (solid stability test, initial). Further, the crystal form entry is reported as “β” in data set [2] (setting [6]); “β” in data set [2] (setting [7]); “β” in data set [2] (hygroscopicity test, initial); “β” in data set [3] (setting [8]); “β” in data set [3] (setting [9]); “β” in data set [3] (setting [10]). The crystal form entry in data set [3] (setting [11]) was “β”; in data set [3] (setting [12]), “β”; in data set [3] (solid stability test, initial, powder X-ray diffraction) it was “β”. For the same compound, the total impurity in data set [3] (setting [8]) came to 0.48%; in data set [3] (setting [9]), 0.46%; in data set [3] (setting [10]), 0.49%; in data set [3] (setting [11]) it was 0.48%; in data set [3] (setting [12]), 0.51%; in data set [3] (setting [13]), 0.55%. For the same compound, the “changes in water content and appearance, crystal transition” value in data set [3] (solid stability test, 2 weeks) is “neither remarkable changes in water content and appearance nor crystal transition was observed”.
For the compound `COc1cc2nccc(Oc3ccc(NC(=O)NC4CC4)c(Cl)c3)c2cc1C(N)=O.CS(=O)(=O)O` [mesylate (Form B), Methanesulfonate of 4-(3-chloro-4-(cyclopropylaminocarbonyl)aminophenoxy)-7-methoxy-6-quinolinecarboxamide], the “crystal transition on humidification” value in data set [4] (relative humidity from 3% to 70%) is “did not exhibit a crystal transition”; in data set [4] (relative humidity of 75% and 80%), “mixture of crystalline forms of the mesylate (Form B) and (Form C)”; in data set [4] (relative humidity of 85%) it was “complete transition to a crystalline form of the mesylate (Form C)”.
Turning to `COc1cc2nccc(Oc3ccc(NC(=O)NC4CC4)c(Cl)c3)c2cc1C(N)=O.CS(=O)(=O)O` [mesylate (Form A), Methanesulfonate of 4-(3-chloro-4-(cyclopropylaminocarbonyl)aminophenoxy)-7-methoxy-6-quinolinecarboxamide], the dissolution rate in data set [1] came out at 11.8 μg/min/cm^2. The compound also showed a BA in data set [5] of 46.2 ± 5.9%. This compound had an AUC0-24hr in data set [5] of 3000 ± 400 ng·h/mL. The “Maximum plasma concentration (Cmax)” value in data set [5] stood at 397.1 ± 100.1 ng/mL. Besides, in data set [5], the “plasma concentration after 24 hours (C24hr)” value amounted to 17.1 ± 2.5 ng/mL. Also, in data set [5], the “time to reach maximum plasma concentration (Tmax)” value was determined as 1.67 ± 0.3 h. The “change in appearance and crystal transition” value in data set [2] (1 week) is recorded as “Neither remarkable change in appearance nor crystal transition was observed”. The “change of water content” value in data set [2] (1 week) is listed as “did not change remarkably”. For the same compound, in data set [2] (1 week), the hygroscopicity entry is given as “not observed”. The water content in data set [2] (setting [6]) was 0.6%; in data set [2] (setting [7]) it was 0.7%; in data set [2] (hygroscopicity test, initial) it was 0.7%; in data set [3] (setting [8]) it was 0.0%; in data set [3] (setting [9]), 0.0%; in data set [3] (setting [10]), 0.1%. For the same compound, the water content in data set [3] (setting [11]) came out at 0.2%; in data set [3] (setting [12]), 0.2%; in data set [3] (solid stability test, initial), 0.3%. Also, the total impurity in data set [3] (setting [8]) stood at 3.90%; in data set [3] (setting [9]) it was 3.95%; in data set [3] (setting [10]), 4.23%; in data set [3] (setting [11]), 3.90%; in data set [3] (setting [12]), 3.97%; in data set [3] (setting [13]) it was 4.02%. The “changes in water content and appearance, crystal transition” value in data set [3] (solid stability test, 2 weeks) is “neither remarkable changes in water content and appearance nor crystal transition was observed”.
On to `Br.COc1cc2nccc(Oc3ccc(NC(=O)NC4CC4)c(Cl)c3)c2cc1C(N)=O` [hydrobromide, Hydrobromide of 4-(3-chloro-4-(cyclopropylaminocarbonyl)aminophenoxy)-7-methoxy-6-quinolinecarboxamide], for which, in data set [1], the dissolution rate stood at 8.7 μg/min/cm^2. Besides, in data set [5], the BA worked out at 73.5 ± 2.3%, the AUC0-24hr stood at 4800 ± 200 ng·h/mL, the “Maximum plasma concentration (Cmax)” value is listed as 480.4 ± 31.4 ng/mL and the “plasma concentration after 24 hours (C24hr)” value stood at 100.5 ± 81.7 ng/mL. For the same compound, the “time to reach maximum plasma concentration (Tmax)” value in data set [5] came out at 2.67 ± 0.7 h.
